Results: the supplement of paper PMC8633005

Legend:
Experiment in all cases: drug sensitivity score (DSS) (DSS (unitless, 0-50 scale)); higher = more sensitive (stronger viability inhibition); extreme values may be limits of the assay
Settings in all cases: 72 h; culture: 2D
WM165 = system: WM165
Summary of the method: (§1)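 Patient-derived melanoma cultures (1000–1500 cells per well) and melanoma cell lines were grown in 2D in 384-well plates holding a 527-compound oncology library. Each compound was dissolved in DMSO or water and tested at five concentrations spanning a 10,000-fold range. After 72 h at 37 °C, viability was read by CellTiter-Glo luminescence. A drug sensitivity score, a modified area-under-curve measure, was derived from dose-response curves fitted in the in-house Breeze software.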

FM-MEL-2 = system: FM-MEL-2
Summary of the method: as §1

Bowes = system: Bowes
Summary of the method: as §1

WM852 = system: WM852
Summary of the method: as §1

SK-MEL-2 = system: SK-MEL-2
Summary of the method: as §1

FM-MEL-3 = system: FM-MEL-3
Summary of the method: as §1

FM-MEL-6 = system: FM-MEL-6
Summary of the method: as §1

SK-MEL-28 = system: SK-MEL-28
Summary of the method: as §1

CC(C)C[C@H](NC(=O)CNC(=O)c1cc(Cl)ccc1Cl)B(O)O [Ixazomib]
drug sensitivity score (WM165): 10.4 | drug sensitivity score (FM-MEL-2): 4.9 | drug sensitivity score (Bowes): 8.8 | drug sensitivity score (WM852): 0.9 | drug sensitivity score (SK-MEL-2): 11.2 | drug sensitivity score (FM-MEL-3): 13.6 | drug sensitivity score (FM-MEL-6): 17 | drug sensitivity score (SK-MEL-28): 9.6

FC(F)(F)c1ccc(/C=C/c2nc(COc3ccc(CCCCn4ccnn4)cc3)co2)cc1 [Mubritinib]
drug sensitivity score (WM165): 2.3 | drug sensitivity score (FM-MEL-2): 0 | drug sensitivity score (Bowes): 6.4 | drug sensitivity score (WM852): 15.5 | drug sensitivity score (SK-MEL-2): 0 | drug sensitivity score (FM-MEL-3): 9.3 | drug sensitivity score (FM-MEL-6): 0 | drug sensitivity score (SK-MEL-28): 0

CC[C@@H](C(=O)[C@@H](C)[C@@H](O)[C@H](C)[C@@H]1O[C@@H]([C@@H](CC)C(=O)O)CC[C@@H]1C)[C@H]1O[C@]2(C=C[C@@H](O)[C@]3(CC[C@@](C)([C@H]4CC[C@](O)(CC)[C@H](C)O4)O3)O2)[C@H](C)C[C@@H]1C [Salinomycin]
drug sensitivity score (WM165): 18.3 | drug sensitivity score (FM-MEL-2): 6.4 | drug sensitivity score (Bowes): 19.1 | drug sensitivity score (WM852): 9.9 | drug sensitivity score (SK-MEL-2): 2.1 | drug sensitivity score (FM-MEL-3): 6.9 | drug sensitivity score (FM-MEL-6): 13.2 | drug sensitivity score (SK-MEL-28): 9.5

Cc1[nH]nc(C(F)(F)F)c1Cc1sc2c(c1C(=O)N1C[C@](C)(O)CO1)c(=O)n(C)c(=O)n2C(C)C [AZD3965]
drug sensitivity score (WM165): 0 | drug sensitivity score (FM-MEL-2): 0 | drug sensitivity score (Bowes): 8 | drug sensitivity score (WM852): 0 | drug sensitivity score (SK-MEL-2): 0 | drug sensitivity score (FM-MEL-3): 0 | drug sensitivity score (FM-MEL-6): 0.3 | drug sensitivity score (SK-MEL-28): 0

CC[C@]1(O)C[C@H]2CN(CCc3c([nH]c4ccccc34)[C@@](C(=O)OC)(c3cc4c(cc3OC)N(C=O)[C@H]3[C@@](O)(C(=O)OC)[C@H](OC(C)=O)[C@]5(CC)C=CCN6CC[C@]43[C@@H]65)C2)C1 [Vincristine]
drug sensitivity score (WM165): 20.2 | drug sensitivity score (FM-MEL-2): 4.5 | drug sensitivity score (Bowes): 18.7 | drug sensitivity score (WM852): 16.5 | drug sensitivity score (SK-MEL-2): 18.5 | drug sensitivity score (FM-MEL-3): 12.6 | drug sensitivity score (FM-MEL-6): 7.6 | drug sensitivity score (SK-MEL-28): 10.1

CCN(CC)CCNC(=O)c1c(C)[nH]c(/C=C2\C(=O)Nc3ccc(F)cc32)c1C [Sunitinib]
drug sensitivity score (WM165): 0.8 | drug sensitivity score (FM-MEL-2): 0 | drug sensitivity score (Bowes): 0 | drug sensitivity score (WM852): 0 | drug sensitivity score (SK-MEL-2): 0 | drug sensitivity score (FM-MEL-3): 0 | drug sensitivity score (FM-MEL-6): 0 | drug sensitivity score (SK-MEL-28): 0

CC[C@H](Nc1ncnc2[nH]cnc12)c1nc2cccc(F)c2c(=O)n1-c1ccccc1 [Idelalisib]
drug sensitivity score (WM165): 0.7 | drug sensitivity score (FM-MEL-2): 3.1 | drug sensitivity score (Bowes): 0.2 | drug sensitivity score (WM852): 0.4 | drug sensitivity score (SK-MEL-2): 0 | drug sensitivity score (FM-MEL-3): 1 | drug sensitivity score (FM-MEL-6): 1.8 | drug sensitivity score (SK-MEL-28): 4.1

CN(C)C/C=C/C(=O)Nc1cc2c(Nc3ccc(F)c(Cl)c3)ncnc2cc1O[C@H]1CCOC1 [Afatinib]
drug sensitivity score (WM165): 0 | drug sensitivity score (FM-MEL-2): 0 | drug sensitivity score (Bowes): 2.2 | drug sensitivity score (WM852): 0 | drug sensitivity score (SK-MEL-2): 0 | drug sensitivity score (FM-MEL-3): 0.5 | drug sensitivity score (FM-MEL-6): 0.3 | drug sensitivity score (SK-MEL-28): 0

CCN(CC)CCN(Cc1ccc(-c2ccc(C(F)(F)F)cc2)cc1)C(=O)Cn1c(SCc2ccc(F)cc2)nc(=O)c2c1CCC2 [Darapladib]
drug sensitivity score (WM165): 0 | drug sensitivity score (FM-MEL-2): 0.8 | drug sensitivity score (Bowes): 0 | drug sensitivity score (WM852): 0 | drug sensitivity score (SK-MEL-2): 0.2 | drug sensitivity score (FM-MEL-3): 0 | drug sensitivity score (FM-MEL-6): 0.4 | drug sensitivity score (SK-MEL-28): 0.4

CCC(C)(C)C(=O)O[C@H]1C[C@@H](C)C=C2C=C[C@H](C)[C@H](CC[C@@H]3C[C@@H](O)CC(=O)O3)[C@H]21 [Simvastatin]
drug sensitivity score (WM165): 4.5 | drug sensitivity score (FM-MEL-2): 0 | drug sensitivity score (Bowes): 2.8 | drug sensitivity score (WM852): 1 | drug sensitivity score (SK-MEL-2): 0.1 | drug sensitivity score (FM-MEL-3): 1 | drug sensitivity score (FM-MEL-6): 0.3 | drug sensitivity score (SK-MEL-28): 0

CN[C@@H](C)C(=O)N[C@H]1CN(C(=O)CC(C)C)CC[C@H]2CC[C@@H](C(=O)NC(c3ccccc3)c3ccccc3)N2C1=O [AT-406]
drug sensitivity score (WM165): 0 | drug sensitivity score (FM-MEL-2): 9.7 | drug sensitivity score (Bowes): 1.9 | drug sensitivity score (WM852): 0 | drug sensitivity score (SK-MEL-2): 0.1 | drug sensitivity score (FM-MEL-3): 0 | drug sensitivity score (FM-MEL-6): 2.2 | drug sensitivity score (SK-MEL-28): 0

CO[C@H]1C[C@@H]2CC[C@@H](C)[C@@](O)(O2)C(=O)C(=O)N2CCCC[C@H]2C(=O)O[C@H]([C@H](C)C[C@@H]2CC[C@@H](O)[C@H](OC)C2)CC(=O)[C@H](C)/C=C(\C)[C@@H](O)[C@@H](OC)C(=O)[C@H](C)C[C@H](C)/C=C/C=C/C=C/1C [Sirolimus]
drug sensitivity score (WM165): 4.5 | drug sensitivity score (FM-MEL-2): 0.2 | drug sensitivity score (Bowes): 0 | drug sensitivity score (WM852): 0 | drug sensitivity score (SK-MEL-2): 0 | drug sensitivity score (FM-MEL-3): 0.2 | drug sensitivity score (FM-MEL-6): 1.2 | drug sensitivity score (SK-MEL-28): 0.9

CO[C@H]1C[C@@H]2CC[C@@H](C)[C@@](O)(O2)C(=O)C(=O)N2CCCC[C@H]2C(=O)O[C@H]([C@H](C)C[C@@H]2CC[C@@H](OC(=O)C(C)(CO)CO)[C@H](OC)C2)CC(=O)[C@H](C)/C=C(\C)[C@@H](O)[C@@H](OC)C(=O)[C@H](C)C[C@H](C)/C=C/C=C/C=C/1C [Temsirolimus]
drug sensitivity score (WM165): 6 | drug sensitivity score (FM-MEL-2): 4 | drug sensitivity score (Bowes): 0 | drug sensitivity score (WM852): 0 | drug sensitivity score (SK-MEL-2): 0 | drug sensitivity score (FM-MEL-3): 0 | drug sensitivity score (FM-MEL-6): 4.4 | drug sensitivity score (SK-MEL-28): 2.5

CONC(=O)c1ccccc1Nc1cc(Nc2cc(C)nn2C(C)C)ncc1Cl
drug sensitivity score (WM165): 0.1 | drug sensitivity score (FM-MEL-2): 0.2 | drug sensitivity score (Bowes): 0.5 | drug sensitivity score (WM852): 0 | drug sensitivity score (SK-MEL-2): 0 | drug sensitivity score (FM-MEL-3): 1.5 | drug sensitivity score (FM-MEL-6): 0 | drug sensitivity score (SK-MEL-28): 0

Nc1ccccc1NC(=O)c1ccc(CNC(=O)OCc2cccnc2)cc1 [Entinostat]
drug sensitivity score (WM165): 11.4 | drug sensitivity score (FM-MEL-2): 4.5 | drug sensitivity score (Bowes): 1.8 | drug sensitivity score (WM852): 0.1 | drug sensitivity score (SK-MEL-2): 7.9 | drug sensitivity score (FM-MEL-3): 6.6 | drug sensitivity score (FM-MEL-6): 8.2 | drug sensitivity score (SK-MEL-28): 8.7

N#CC(c1ccnc(OCc2ccc(CN3CCOCC3)cc2)n1)c1nc2ccccc2s1 (centres undefined) [Bentamapimod]
drug sensitivity score (WM165): 1.1 | drug sensitivity score (FM-MEL-2): 3.9 | drug sensitivity score (Bowes): 1.4 | drug sensitivity score (WM852): 0.1 | drug sensitivity score (SK-MEL-2): 0 | drug sensitivity score (FM-MEL-3): 5.9 | drug sensitivity score (FM-MEL-6): 2.8 | drug sensitivity score (SK-MEL-28): 0.8

CN(C)CCOc1ccc(/C(=C(/CCCl)c2ccccc2)c2ccccc2)cc1 [Toremifene]
drug sensitivity score (WM165): 4.3 | drug sensitivity score (FM-MEL-2): 5.8 | drug sensitivity score (Bowes): 1.1 | drug sensitivity score (WM852): 3.4 | drug sensitivity score (SK-MEL-2): 1.6 | drug sensitivity score (FM-MEL-3): 7.8 | drug sensitivity score (FM-MEL-6): 6 | drug sensitivity score (SK-MEL-28): 4.4

O=C(CCNC(=O)c1ccc(OC(F)(F)F)cc1)N[C@@H]1CCCc2ccccc21 [ML390]
drug sensitivity score (WM165): 6.8 | drug sensitivity score (FM-MEL-2): 0 | drug sensitivity score (Bowes): 0 | drug sensitivity score (WM852): 0 | drug sensitivity score (SK-MEL-2): 0 | drug sensitivity score (FM-MEL-3): 6.7 | drug sensitivity score (FM-MEL-6): 1.2 | drug sensitivity score (SK-MEL-28): 2.8
